Measurements: PMC6036575, “Reincarnation of Bacteriocins From the Lactobacillus Pangenomic Graveyard” (Frontiers in Microbiology, 2018)
Entries after “also recorded” stand apart in the source; their conditions may differ.

Columns and labels:
[1] = system: P. ethanolidurans DSM 22301; assay: Well diffusion assay, spectrum of bacteriocin activity; format: cell-based; settings: 50 μl filtered supernatant of E. coli Tuner (DE3) transformants encoding the pediocin PA-1 leader, 7 mm wells, triplicate
Procedure: (§1) Bacteriocin activity was determined using well diffusion assays (WDAs). For Tuner^TM (DE3) E. coli transformants both the cell supernatant and the cell lysates were analyzed for antimicrobial activity, whilst only the supernatants were analyzed for L. paracasei NFBC338 cells. Supernatant was isolated by centrifugation of the liquid cultures at 4000 RCF for 15 min, these supernatants were then filtered using 0.20 μm membrane filters. For cell lysates, cell pellets were resuspended in 5 ml of phosphate-buffered saline (PBS), cells were lysed by sonication using a MSE Soniprep 150 (MSE, London, UK). Lysates were subsequently centrifuged at 4000 RCF for 15 min and the resulting supernatants were filtered using 0.20 μm membrane filters. For the indicator plates, 50 μl of an overnight culture of the indicator strain was added to the appropriate media containing 1% agar. Plates were cooled and 7 mm wells were bored in the agar. 50 μl of the cell supernatants/lysates being tested were added to each well and plates were refrigerated for 2 h prior to incubation under the appropriate conditions. WDAs were carried out in triplicate for each bacteriocin.
(§2) E. coli Tuner^TM (DE3) cells transformed with the newly constructed plasmids were grown in LB supplemented with glucose to maintain a low-copy number and bacteriocin expression was induced by co-incubation of the clones with 50 μM IPTG for 3 h. WDAs were used to identify bacteriocin activity from the bacterial supernatants and cell lysates. Bacteriocins were exclusively found in the bacterial supernatant. Antimicrobial activity was lower in cases where the native leader of the bacteriocin sequence was used; with only four of the nine strains displaying zones of inhibition against a sensitive indicator (pediocin 20336a has an identical leader to pediocin PA-1). For expression in L. paracasei NFBC338, cells were transformed by electroporation with the bacteriocin-containing pNZ44 vectors. Positive transformants were grown overnight and the neutralized cell free supernatant was used to identify bacteriocin production in WDAs.
(§3) The spectrum of activity was determined using WDAs against 32 indicator strains for bacteriocins produced by the E. coli transformants encoding the pediocin leader (Table 2). Despite being of the same class of bacteriocins, these novel antimicrobials display a varying spectrum of activity. […] Many of these bacteriocins, however, can inhibit a wide range of Gram positive bacteria including potential pathogens such as Enterococcus faecalis. As with most class IIa bacteriocins, these also display potent anti-listerial activity.

[2] = system: Listeria innocua DPC 3572; assay: as above; format: cell-based; settings: 50 μl filtered supernatant of E. coli Tuner (DE3) transformants encoding the pediocin PA-1 leader, 7 mm wells, triplicate
Procedure: as §1, §2, §3

E.mundtii LMG 10748 = assay: as above; format: cell-based; settings: 50 μl filtered supernatant of E. coli Tuner (DE3) transformants encoding the pediocin PA-1 leader, 7 mm wells, triplicate
Procedure: as §1, §2, §3

[3] = system: Li. monocytogenes DPC 6894; assay: as above; format: cell-based; settings: 50 μl filtered supernatant of E. coli Tuner (DE3) transformants encoding the pediocin PA-1 leader, 7 mm wells, triplicate
Procedure: as §1, §2, §3

[4] = system: Enterococcus faecalis LMG 7397; assay: as above; format: cell-based; settings: 50 μl filtered supernatant of E. coli Tuner (DE3) transformants encoding the pediocin PA-1 leader, 7 mm wells, 1% agar, triplicate
Procedure: as §1, §2, §3

[5] = system: Li. monocytogenes WSL 1416; assay: as above; format: cell-based; settings: 50 μl filtered supernatant of E. coli Tuner (DE3) transformants encoding the pediocin PA-1 leader, 7 mm wells, triplicate
Procedure: as §1, §2, §3

L. crustorum JCM 15951 = assay: as above; format: cell-based; settings: 50 μl filtered supernatant of E. coli Tuner (DE3) transformants encoding the pediocin PA-1 leader, 7 mm wells, triplicate
Procedure: as §1, §2, §3

L. mali DSM 20444 = assay: as above; format: cell-based; settings: 50 μl filtered supernatant of E. coli Tuner (DE3) transformants encoding the pediocin PA-1 leader, 7 mm wells, triplicate
Procedure: as §1, §2, §3

P. clausenii DSM 14800 = assay: as above; format: cell-based; settings: 50 μl filtered supernatant of E. coli Tuner (DE3) transformants encoding the pediocin PA-1 leader, 7 mm wells, triplicate
Procedure: as §1, §2, §3

L. apodemi DSM 16654 = assay: as above; format: cell-based; settings: 50 μl filtered supernatant of E. coli Tuner (DE3) transformants encoding the pediocin PA-1 leader, 7 mm wells, triplicate
Procedure: as §1, §2, §3

[6] = system: E. saccharolyticus DPC 4902; assay: as above; format: cell-based; settings: 50 μl filtered supernatant of E. coli Tuner (DE3) transformants encoding the pediocin PA-1 leader, 7 mm wells, triplicate
Procedure: as §1, §2, §3

L. nodensis DSM 16982 = assay: as above; format: cell-based; settings: 50 μl filtered supernatant of E. coli Tuner (DE3) transformants encoding the pediocin PA-1 leader, 7 mm wells, triplicate
Procedure: as §1, §2, §3

L. plantarum DSM 13273 = assay: as above; format: cell-based; settings: 50 μl filtered supernatant of E. coli Tuner (DE3) transformants encoding the pediocin PA-1 leader, 7 mm wells, triplicate
Procedure: as §1, §2, §3

[7] = system: Li. monocytogenes DPC 6893; assay: as above; format: cell-based; settings: 50 μl filtered supernatant of E. coli Tuner (DE3) transformants encoding the pediocin PA-1 leader, 7 mm wells, triplicate
Procedure: as §1, §2, §3

32 indicator strains = assay: Well diffusion assays against the panel of 32 indicator strains; format: cell-based; settings: for Total no. of strains inhibited: of 32 indicator strains, supernatant of E. coli transformants encoding the pediocin leader; for antimicrobial activity / spectrum, in words: crude supernatant from the E. coli heterologous host, pediocin PA-1 leader
Procedure: as §1, §2, §3

L. innocua DPC3572 = assay: Bacteriocin activity (BU/ml), dilution series in well diffusion assay; format: cell-based, Listeria innocua; settings: for Bacteriocin Activity (BU/ml) vs. L. innocua DPC3572: inverse of the highest dilution of bacterial supernatant showing activity in a well diffusion assay
Procedure: as §1, §2

[8] = system: Pediococcus stilesii DSM 18001; assay: Well diffusion assay, spectrum of bacteriocin activity; format: cell-based; settings: 50 μl filtered supernatant of E. coli Tuner (DE3) transformants encoding the pediocin PA-1 leader, 7 mm wells, triplicate
Procedure: as §1, §2, §3

L. amylophilus DSM 20509 = assay: as above; format: cell-based; settings: 50 μl filtered supernatant of E. coli Tuner (DE3) transformants encoding the pediocin PA-1 leader, 7 mm wells, triplicate
Procedure: as §1, §2, §3

[9] = produced by E. coli Tuner (DE3)
[10] = produced by L. paracasei NFBC338, neutralized cell free supernatant

Substance	radius of the zone of inhibition [1]	radius of the zone of inhibition [2]	radius of the zone of inhibition (E.mundtii LMG 10748)	radius of the zone of inhibition [3]	radius of the zone of inhibition [4]	radius of the zone of inhibition [5]	radius of the zone of inhibition (L. mali DSM 20444)	radius of the zone of inhibition (L. apodemi DSM 16654)	radius of the zone of inhibition [6]	radius of the zone of inhibition [7]	Total no. of strains inhibited (32 indicator strains)	Bacteriocin Activity (BU/ml) vs. L. innocua DPC3572 (L. innocua DPC3572; [9])	Bacteriocin Activity (BU/ml) vs. L. innocua DPC3572 (L. innocua DPC3572; [10])	also measured
SRYYGNGITCG-KHKCTVNWGQAWTCGVNRLANFGH–G————–NC— (bicyclic or more) [Agilicin (Agl), novel pediocin-like class IIa bacteriocin encoded by L. agilis DSM 20509, heterologously expressed]	3.33 ± 0.47 millimeters	5 ± 0 millimeters	3 ± 0 millimeters	4 ± 0 millimeters	2.17 ± 0.24 millimeters	2 ± 0.82 millimeters	4.50 ± 0.41 millimeters	2.67 ± 0.47 millimeters	3.33 ± 0.47 millimeters	2 ± 0 millimeters	14	++ (++ = 320 – 2560 BU/ml)	++ (++ = 320 – 2560 BU/ml)	radius of the zone of inhibition (L. crustorum JCM 15951): 0.33 ± 0.47 millimeters; radius of the zone of inhibition (P. clausenii DSM 14800): 0.67 ± 0.47 millimeters; radius of the zone of inhibition (L. nodensis DSM 16982): 3.50 ± 0.71 millimeters; radius of the zone of inhibition (L. plantarum DSM 13273): 0.33 ± 0.47 millimeters
–KNYGNGVYCTKKHGYKVDWGQAWSIIGNNSAANSTTRGAAGWKSK—- [Aquaticin (Aqu), novel pediocin-like class IIa bacteriocin encoded by L. aquaticus DSM 21051; peptide not identified by MALDI-TOF]	–	–	–	–	–	–	–	–	–	–	0	–	–	antimicrobial activity / spectrum, in words (32 indicator strains; listed as Aquaticin): failed to display antimicrobial activity; antimicrobial activity / spectrum, in words (32 indicator strains; listed as aquaticin): activity was not seen
–KYYGNGVHCG-KKTCYVDWGQATASIGKIIVNGWTQHGPWAHR———- (disulfide) [Penocin A (PenA), previously characterized class IIa bacteriocin, here encoded by P. pentosaceus DSM 20336, heterologously expressed]	2 ± 1.41 millimeters	2.50 ± 0.41 millimeters	1.33 ± 0.94 millimeters	0.67 ± 0.47 millimeters	0.67 ± 0.47 millimeters	0.67 ± 0.47 millimeters	1.50 ± 1.08 millimeters	–	1.33 ± 0.94 millimeters	0.67 ± 0.47 millimeters	12	++ (++ = 320 – 2560 BU/ml)	+ (+ = 0 – 160 BU/ml)	radius of the zone of inhibition [8]: 0.67 ± 0.47 millimeters; radius of the zone of inhibition (P. clausenii DSM 14800): 1 ± 0.82 millimeters; radius of the zone of inhibition (L. amylophilus DSM 20509): 0.67 ± 0.47 millimeters
–KYYGNGVSCG-KHSCSVDWGKATTCTINNSAMAWATSGHQGNHKC—- (bicyclic or more) [Rennicin B (RenB), novel pediocin-like class IIa bacteriocin encoded by L. rennini DSM 20253, heterologously expressed]	–	–	–	–	–	–	–	–	–	–	0	–	+ (+ = 0 – 160 BU/ml)	antimicrobial activity / spectrum, in words (32 indicator strains): failed to display antimicrobial activity; also recorded: did not display activity; level of activity when expressed in L. paracasei NFBC338, in words (L. innocua DPC3572; expressed in L. paracasei NFBC338): equal levels of activity compared to rennicin A
–KYYGNGVSCG-KHTCKVNWGQAWNESVNRWGNSWVNGLTGLRQH— (disulfide) [Futcin (Fut), novel pediocin-like class IIa bacteriocin encoded by L. futsaii JCM 17355, heterologously expressed]	3 ± 0 millimeters	2.00 ± 0 millimeters	1.83 ± 0.24 millimeters	0.83 ± 0.24 millimeters	1.67 ± 0.47 millimeters	1 ± 0 millimeters	2.17 ± 0.85 millimeters	0.33 ± 0.47 millimeters	2 ± 0 millimeters	–	–	+ (+ = 0 – 160 BU/ml)	–	Total no. of strains inhibited (32 indicator strains; listed as Fut): 9; Total no. of strains inhibited (32 indicator strains; listed as futcin): nine
–KYYGNGVSCS-KHSCSVDWGKALTCTINNGAMAWTTGGHQGNHKC—- (bicyclic or more) [Rennicin A (RenA), novel pediocin-like class IIa bacteriocin encoded by L. rennini DSM 20253, heterologously expressed]	1.50 ± 0.41 millimeters	6.33 ± 0.94 millimeters	3.33 ± 0.47 millimeters	2 ± 1.41 millimeters	3 ± 0 millimeters	2.67 ± 0.47 millimeters	1 ± 0 millimeters	0.67 ± 0.47 millimeters	2.33 ± 0.47 millimeters	2 ± 0 millimeters	10	+ (+ = 0 – 160 BU/ml)	+ (+ = 0 – 160 BU/ml)	–
—-KYYGNGLHIPKHGKPYINWGQAIQSIGKISYHGWVNGITSGAAGVGRH [Acidicin (Acd), novel pediocin-like class IIa bacteriocin encoded by L. acidipiscis DSM 15836, heterologously expressed]	–	–	–	–	–	–	1.50 ± 0.41 millimeters	–	–	–	1	–	–	antimicrobial activity / spectrum, in words (32 indicator strains): displayed activity exclusively against L. mali
